{"source": "patent US20080269116A1", "about": "(priority 2004, published 2008)", "key": {"primary human T cells [1]": {"tested_on": "primary human T cells", "test": "Leptin-induced cytokine protein and mRNA expression in anti-CD3-activated human T cells", "type": "cell-based", "details": "24 h", "experimental": "(§1) T cell isolation and culture. Peripheral blood mononuclear cells (PBMC) were obtained by Ficoll-Hypaque density centrifugation. T cells were purified from PBMC using human T cell enrichment columns (R&D systems) via high affinity negative selection according to manufacturer's instructions. […] T cells were stimulated with plate bound anti-human CD3 antibody (BD Pharmingen, San Diego, Calif.) (200 ng/ml) at a concentration of 3×10^6 cells/ml in AIM-V serum free media for 24 h.\n(§2) Cytokine estimation. IL-1β, IL-6 and TNF-α were estimated in T cell supernatants after 24 h using commercial ELISA kits according to manufacturer's instructions (Biosource, Camarillo, Calif.). Serum cytokines were analyzed using Bio-Plex Mouse Cytokine 18-Plex Panel according to manufacturer's instructions (Biorad, Hercules, Calif.).\n(§3) Real Time RT-PCR analysis. RT-PCR was performed as described previously (Nagasawa et al. Adv. Immunol. 71: 211-228 (1999)). Total RNA (2 μg) and oligo-dT primers were used to synthesize single-stranded cDNA using the Reverse Transcription kit (Life Technologies, Gaithersburg, Md.) according to manufacturer's instructions. The PCR was set up using SYBR green Master Mix (Applied Biosystems), 1 μl cDNA and gene-specific primers at a final concentration of 0.3 μM. Thermal cycling was carried out on the Applied Biosystems GeneAmp 7700 Sequence Detector and SYBR green dye intensity was analyzed using GeneAmp 7700 SDS software. […] Mouse IL-1β, IL-6, TNF-α, GAPDH and human GHS-R1a primers were designed using ABI prism software (PE Applied Biosystems). The PCR product of the GHS-R 1a amplification was quantitated using the Agilent 2100 Bioanalyzer (Agilent Technologies, Palo Alto, Calif.). Primers are available upon request. No PCR products were generated from genomic versus cDNA template."}, "LPS-induced endotoxemia [2]": {"tested_on": "LPS-induced endotoxemia", "test": "LPS-induced endotoxemia in mice: tissue cytokine mRNA, real time PCR", "type": "in vivo, BALB/c mice", "details": "for TNF-α expression: 24 h post LPS", "experimental": "(§4) Mice. Male 20-22 g BALB/c mice (Taconic, Germantown, N.Y.), 8-10 weeks old, were used. The guidelines proposed by the committee for the Care of Laboratory Animal Resources Commission of Life Sciences-National Research Council were followed to minimize animal pain and distress. Each animal received rodent laboratory chow and ad libitum water.\n(§5) LPS-induced inflammation. Endotoxin shock in mice was induced by intraperitoneal (i.p.) injection with 10 μg of LPS (E. coli serotype 055:B5, Sigma) as described previously (Bochkov et al. 2002. Nature. 419: 77-8). […] Mice were sacrificed 4 h and 24 h post-LPS challenge and visceral organs and serum were collected.\nas §3"}, "T cells": {"tested_on": "T cells", "test": "Cytokine mRNA expression in T cells, real time RT-PCR", "type": "cell-based, human", "details": "normalized with GAPDH", "experimental": "as §1, §3"}, "Human PBMCs": {"tested_on": "Human PBMCs", "test": "Cytokine production by PHA-stimulated human PBMCs (ELISA)", "type": "cell-based", "details": "24 h"}, "LPS-induced endotoxemia [3]": {"tested_on": "LPS-induced endotoxemia", "test": "LPS-induced endotoxemia in mice: serum cytokine levels (Bio-Plex)", "type": "in vivo, BALB/c mice", "experimental": "as §4, §5, §2"}, "LPS-induced anorexia": {"tested_on": "LPS-induced anorexia", "test": "Food intake in LPS-challenged and control mice", "type": "in vivo, BALB/c mice", "experimental": "as §4, §5"}, "human T cells [4]": {"tested_on": "human T cells", "test": "T cell proliferation and IL-2 levels after anti-CD3 mAb and ghrelin", "type": "cell-based", "details": "anti-CD3 mAb and ghrelin treatment"}, "human T cells [5]": {"tested_on": "human T cells", "test": "Actin polymerization in human T cells (phalloidin staining)", "type": "cell-based", "details": "ghrelin 100 ng/ml, 20 min", "text": "Actin Polymerization. […] Thereafter cells were fixed and permeabilized in 2% Paraformaldehyde plus 0.1% Triton-X 100 and stained for actin using phalloidin AF-594 and nucleus by DAPI."}, "primary human T cells [6]": {"tested_on": "primary human T cells", "test": "Cytokine production by anti-CD3-stimulated primary human T cells (ELISA)", "type": "cell-based", "details": "immobilized anti-CD3 antibody, 24 h", "experimental": "as §1, §2"}, "T cells or PBMCs": {"tested_on": "T cells or PBMCs", "test": "Cytolytic effects: lactate dehydrogenase and trypan blue cell counts", "type": "cell-based, human", "details": "control vs hormone-treated T cells or PBMCs", "text": "The classical pro-inflammatory cytokines, IL-1a, IL-1β, IL-6 and TNF-α are known to play a critical role in development of anorexia-cachexia syndrome (Inui et al. 1999. Cancer Res. 59: 4493-4501). The anorexia-cachexia syndrome is a complex multifactorial metabolic condition associated with altered protein, carbohydrate and fat metabolism resulting in anorexia, negative energy balance, weight loss and muscle wasting (Kotler et al. 2000. Ann. Internal Med. 133: 622-634)."}, "GHS-R": {"target": "T1, GHS-R (Homo sapiens, UniProt Q92847)", "T1 construct": "endogenous in cells; host or cells: cultured human T cells", "T1 sequence (Q92847 whole entry)": "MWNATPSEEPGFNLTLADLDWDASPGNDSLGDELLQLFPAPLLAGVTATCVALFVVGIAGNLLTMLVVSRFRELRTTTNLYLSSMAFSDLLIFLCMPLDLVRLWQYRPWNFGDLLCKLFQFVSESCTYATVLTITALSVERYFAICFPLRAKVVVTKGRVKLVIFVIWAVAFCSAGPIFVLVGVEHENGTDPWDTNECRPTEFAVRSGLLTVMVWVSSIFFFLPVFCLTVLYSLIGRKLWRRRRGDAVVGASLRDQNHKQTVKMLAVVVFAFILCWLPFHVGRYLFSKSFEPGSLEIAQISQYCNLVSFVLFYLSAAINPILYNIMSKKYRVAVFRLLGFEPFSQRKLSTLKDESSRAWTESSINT", "test": "Intracellular calcium mobilization in cultured human T cells (Fura-2)", "type": "cell-based", "experimental": "Intracellular calcium mobilization. […] Cells were incubated in PBS containing 5 μM Fura-2 AM for 30 minutes at room temperature. The cells were subsequently washed and then resuspended at 1×10^6/mL in PBS. A total of 2 mL of the cell suspension was placed in a continuously stirring cuvette at room temperature in an LS50B spectrophotometer (Perkin-Elmer, Wellesley, Mass.). Fluorescence was monitored at λex1=340 nm, λex2=380 nm, and λem=510 nm. The data are presented as the relative ratio of fluorescence excited at 340 and 380 nm."}, "human T cells [7]": {"tested_on": "human T cells", "test": "Effect of leptin on ghrelin and GHS-R expression in human T cells", "type": "cell-based", "experimental": "as §1\nas §3, with “No PCR products were generated from genomic versus cDNA template.” left out"}, "[8]": {"details": "spleen and liver, 4 and 24 h post LPS, ghrelin 5 mg/kg i.p."}, "[9]": {"details": "PHA 1 μg/ml, ghrelin 1 to 100 ng/ml"}, "[10]": {"details": "ghrelin alone vs sham control mice"}, "[11]": {"details": "leptin alone, primary human T cells and PBMCs"}}, "note": "Where no end group is shown, it is not given here. The star is where a group is joined. Octanoyl = CCCCCCCC(=O)*"}
{"substance": "ghrelin", "values": [{"measurement": "leptin-induced cytokine protein and gene expression (IL-1β, IL-6, TNF-α)", "setting": "primary human T cells [1]; ghrelin co-incubated with leptin 100 nM, T cells", "value": "dose-dependent inhibition"}, {"measurement": "TNF-α expression", "setting": "LPS-induced endotoxemia [2]; liver", "value": "inhibited"}, {"measurement": "IL-1β mRNA expression", "setting": "LPS-induced endotoxemia [2]; [8]", "value": "attenuation"}, {"measurement": "IL-6 mRNA expression", "setting": "LPS-induced endotoxemia [2]; [8]", "value": "attenuation"}, {"measurement": "TNF-α mRNA", "setting": "LPS-induced endotoxemia [2]; spleen and liver, 4 h post LPS", "value": "Attenuation"}, {"measurement": "TNF-α expression", "setting": "LPS-induced endotoxemia [2]; spleen", "value": "remained unchanged"}, {"measurement": "IL-1β mRNA expression", "setting": "T cells", "value": "significantly inhibits"}, {"measurement": "IL-6 mRNA expression", "setting": "T cells", "value": "significantly inhibits"}, {"measurement": "TNF-α mRNA expression", "setting": "T cells", "value": "significantly inhibits"}, {"measurement": "TGF-β production", "setting": "Human PBMCs; PHA 1 μg/ml, any concentration tested", "value": "failed to alter TGF-β production"}, {"measurement": "IL-1β production", "setting": "Human PBMCs; [9]", "value": "significant inhibition"}, {"measurement": "IL-6 production", "setting": "Human PBMCs; [9]", "value": "significant inhibition"}, {"measurement": "TNF-α production", "setting": "Human PBMCs; [9]", "value": "significant inhibition"}, {"measurement": "serum IL-1β", "setting": "LPS-induced endotoxemia [3]; 24 h after LPS challenge", "value": "significant inhibition"}, {"measurement": "serum IL-6", "setting": "LPS-induced endotoxemia [3]; 24 h after LPS challenge", "value": "significant inhibition"}, {"measurement": "serum ILα levels", "setting": "LPS-induced endotoxemia [3]; 24 h post LPS and ghrelin treatment", "value": "inhibited"}, {"measurement": "Serum IL-1α level", "setting": "LPS-induced endotoxemia [3]; [10]", "value": "significantly inhibited"}, {"measurement": "Serum IL-1β level", "setting": "LPS-induced endotoxemia [3]; [10]", "value": "significantly inhibited"}, {"measurement": "circulating IL-6 level", "setting": "LPS-induced endotoxemia [3]; serum, 4 h", "value": "but not in IL-1β (FIG. 7a) or IL-6"}, {"measurement": "circulating TNF-α level", "setting": "LPS-induced endotoxemia [3]; serum, 4 h", "value": "significant change"}, {"measurement": "LPS-induced anorexia (food intake)", "setting": "LPS-induced anorexia; 24 h post ghrelin and LPS, prior ghrelin treatment", "value": "significant attenuation of this LPS-induced anorexia"}, {"measurement": "increase in food intake compared to sham controls", "setting": "LPS-induced anorexia; ghrelin-treated control mice in the absence of LPS challenge, 24 h", "value": 30, "unit": "%"}, {"measurement": "IL-2 secretion", "setting": "human T cells [4]", "value": "no significant effects"}, {"measurement": "T cell proliferation", "setting": "human T cells [4]", "value": "no significant effects"}, {"measurement": "actin polymerization / polarization of F-actin", "setting": "human T cells [5]", "value": "marked increase in broad membrane structures characteristic of lamellipodia with typical polarization of F-actin"}, {"measurement": "IL-1β production", "setting": "primary human T cells [6]", "value": "significant dose-dependent inhibition"}, {"measurement": "IL-6 production", "setting": "primary human T cells [6]", "value": "significant dose-dependent inhibition"}, {"measurement": "cytolytic effects (LDH, cell counts by trypan blue exclusion)", "setting": "T cells or PBMCs", "value": "failed to demonstrate any significant difference between control and hormone-treated cells"}]}
{"substance": "Gly-Ser-Ser(n-Octanoyl)-Phe-Leu-Ser-Pro-Glu-His-Gln-Arg-Val-Gln-Gln-Arg-Lys-Glu-Ser-NH2 (GSS(Octanoyl)FLSPEHQRVQQRKES-NH2; N-terminus assumed; SMILES CCCCCCCC(=O)OC[C@H](NC(=O)[C@H](CO)NC(=O)CN)C(=O)N[C@@H](Cc1ccccc1)C(=O)N[C@@H](CC(C)C)C(=O)N[C@@H](CO)C(=O)N1CCC[C@H]1C(=O)N[C@@H](CCC(=O)O)C(=O)N[C@@H](Cc1c[nH]cn1)C(=O)N[C@@H](CCC(N)=O)C(=O)N[C@@H](CCCNC(=N)N)C(=O)N[C@H](C(=O)N[C@@H](CCC(N)=O)C(=O)N[C@@H](CCC(N)=O)C(=O)N[C@@H](CCCNC(=N)N)C(=O)N[C@@H](CCCCN)C(=O)N[C@@H](CCC(=O)O)C(=O)N[C@@H](CO)C(N)=O)C(C)C) [ghrelin 1-18 fragment]", "values": [{"measurement": "rise in intracellular [Ca^2+]", "setting": "GHS-R; cultured human T cells, ghrelin 100 ng/ml", "value": "significant and specific rise in intracellular [Ca^2+]"}]}
{"substance": "[D-Lys-3]-GHRP-6 [reference compound]", "values": [{"measurement": "effect on ghrelin-mediated inhibition of cytokine production", "setting": "Human PBMCs; antagonist 10^−4 M added with ghrelin, PHA-stimulated PBMCs", "value": "attenuated this ghrelin-mediated inhibition"}, {"measurement": "effect on ghrelin-mediated intracellular calcium release", "setting": "GHS-R; pretreatment with antagonist 10^−4 M, then ghrelin 100 ng/ml", "value": "markedly attenuated"}]}
{"substance": "leptin: a member of gp130 family of cytokines, regarded as a pro-inflammatory inducer", "values": [{"measurement": "IL-1β protein and mRNA expression", "setting": "primary human T cells [1]; [11]", "value": "significant dose-dependent increase"}, {"measurement": "IL-6 protein and mRNA expression", "setting": "primary human T cells [1]; [11]", "value": "significant dose-dependent increase"}, {"measurement": "TNF-α protein and mRNA expression", "setting": "primary human T cells [1]; [11]", "value": "significant dose-dependent increase"}, {"measurement": "ghrelin protein production or gene expression", "setting": "human T cells [7]; anti-CD3-stimulated T cells, 24 h", "value": "failed to exert any significant effects"}, {"measurement": "GHS-R mRNA expression", "setting": "human T cells [7]; human T cells, real time RT-PCR", "value": "significant increase"}]}
